How the values were obtained:
[1] = tested on: airway epithelial cell monolayer (SAEC at ALI); experiment: Air-liquid interface culture: IL-13-induced loss of cilia and goblet cell metaplasia (H&E, PAS, β-tubulin and Muc5AC immunostaining); type: cell-based, human
Experimental: FIGS. 4A-4B. AR inhibition prevents IL-13-induced loss of cilia and β-tubulin in airway epithelial cell monolayer. Approximately 8.5×10^4 SAEC were seeded per 12 mm diameter PET transparent insert and cultured for 7 days in differentiation media supplied from both lower and upper sides followed by culture on ALI for 11 days for differentiation into ciliated cells. The monolayer was treated with AR inhibitor for overnight and stimulated with IL-13 for 48 h. The monolayers on the membrane inserts were fixed for 24 h in z-fix (10% buffered formalin with zinc) at 4° C., paraffin embedded and […] sections were cut. (A) The H&E stained sections were examined under the light microscope; magnification 400×. […] (B) Immunohistochemistry using β-tubulin antibodies was performed on the sections. Dark brown staining in the monolayer corresponds to cilia axoneme β-tubulin. Arrows show loss of β-tubulin as the ciliated cells transform into goblet cells. A representative photomicrograph has been shown (n=4); magnification 400×. FIGS. 5A-5B. AR inhibition prevents IL-13-induced goblet cell metaplasia and expression of Muc5AC in airway epithelial monolayer. (A) The well-differentiated airway epithelial cells at air-liquid interface (ALI) were incubated with IL-13 for 48 h without or with AR inhibitor, fidarestat. The monolayer was fixed as described and immunohistochemistry using Muc5AC antibodies was performed on the sections. A representative photomicrograph is shown (n=4); magnification 400×. […] (C) The airway epithelial monolayer was incubated with IL-13 submerged in basal medium for 48 h in the absence and presence of AR inhibitor, fidarestat. The culture medium was collected from the top chamber and utilized for determination of Muc5AC by an ELISA, (n=4); *p<0.005 vs Control; **p<0.01 vs IL-13. For air-liquid interface (ALI) culture, SAEC were seeded at 8.5×10^4 cells/12-mm-diameter PET transparent insert with […] pores (12-well millicell culture insert; Millipore) and pre-coated with rat tail collagen type-1 (Sigma-Aldrich). The cells were grown submerged in the differentiation medium as described earlier by Zhen et al. (Am J Respir Cell Mol Biol 36: 244-253, 2007). The differentiation medium contained a 1:1 mixture of DMEM and small airway epithelial growth medium supplemented as described above, except that gentamycin sulfate, amphotericin B, and triiodothyronine were replaced with 1% penicillin/streptomycin, and 50 nM all-trans retinoic acid. The SAEC were maintained submerged for the first 7 days, after which the apical medium was removed and an air-liquid interface culture was established. […] The stained sections were analyzed and representative fields were photographed using a Photometrix CoolSNAP Fx camera mounted on a NIKON Eclipse TE 200 UV microscope. […]

SPDEF = experiment: Western blot of SPDEF in IL-13-treated SAEC monolayer; type: cell-based, human; details: airway epithelial monolayer, IL-13 24 and 48 h, immunoblotting
Experimental: FIGS. 6A-6B. AR inhibition prevents IL-13-induced expression of Mucin and transcription factor SPDEF in airway epithelial cell monolayer. (A) The airway epithelial cell monolayer at ALI was serum starved without or with fidarestat and incubated with IL-13 for 18 h. Total RNA was isolated and subsequently RT-PCR was performed to assess the expression of Muc5AC and SPDEF. The bar diagrams show densitometric analysis of the corresponding blots (n=4). *p<0.001 vs Control; **p<0.001 vs IL-13; (B) The monolayer of ciliated airway cells at ALI was treated with AR inhibitor for 24 h and subsequently incubated with IL-13 for 24 or 48 h. At the end of incubation, cell lysate was prepared and subjected to western blotting using antibodies against Muc5AC, Muc5B, and SPDEF. The membranes were stripped and re-probed with antibodies against GAPDH to show the equal loading of protein. A representative blot is shown (n=4). *p<0.0001 vs Control; **p<0.001 vs IL-13. […] Protein levels were determined using Bradford reagent (Biorad, Hercules, Calif.). […] The blots were then washed, exposed to HRP-conjugated secondary antibodies (1:5,000 dilution) for 1 h, and the antigen-antibody complex was detected by enhanced chemiluminescence (Amersham Pharmacia Biotech, Piscataway, N.J., USA). […]

NC(=O)[C@@H]1C[C@]2(NC(=O)NC2=O)c2cc(F)ccc2O1 [fidarestat, (2S,4S)-2-aminoformyl-6-fluoro-spiro[chroman-4,4′-imidazolidine]-2′,5′-dione]
decrease in number of Muc5AC positive cells ([1]; IL-13 48 h, Muc5AC immunostaining): ~70% | ciliated morphology (β-tubulin immunostaining) after IL-13 ([1]; fidarestat 10 μM overnight, IL-13 25 ng/ml 48 h): preserved the ciliated morphology | differentiation of airway cells into goblet cells (PAS staining) ([1]; inhibitor added prior to IL-13 challenge, 48 h, data not shown): prevented the airway cells from differentiating into goblet cells | toxic effects of AR inhibitor alone on monolayer of ciliated cells ([1]; inhibitor alone, no IL-13): no toxic effects | prevention of IL-13-induced increase in SPDEF protein (SPDEF): ~50%
